Test results reported in ChEMBL document CHEMBL1152723, “Remarkable enhancement in the DNA-binding ability of C2-fluoro substituted pyrrolo[2,1-c][1,4]benzodiazepines and their anticancer potential” (2009).

Experiments:
M14 = test: Growth inhibition of human M14 cells after 48 hrs by sulforhodamine B protein assay; assay type: functional; conditions: M14, 48 h
CAKI-1 = test: Growth inhibition of human Caki1 cells after 48 hrs by sulforhodamine B protein assay; assay type: functional; conditions: CAKI-1, 48 h
SF-268 = test: Growth inhibition of human SF268 cells after 48 hrs by sulforhodamine B protein assay; assay type: functional; conditions: SF-268, 48 h
786-0 = test: Growth inhibition of human 786-0 cells after 48 hrs by sulforhodamine B protein assay; assay type: functional; conditions: 786-0, 48 h
HL-60(TB) = test: Growth inhibition of human HL-60(TB) cells after 48 hrs by sulforhodamine B protein assay; assay type: functional; conditions: HL-60, 48 h
OVCAR-8 = test: Growth inhibition of human OVCAR8 cells after 48 hrs by sulforhodamine B protein assay; assay type: functional; conditions: OVCAR-8, 48 h
MCF7 = test: Growth inhibition of human MCF7 cells after 48 hrs by sulforhodamine B protein assay; assay type: functional; conditions: MCF7, 48 h
SK-MEL-28 = test: Growth inhibition of human SK-MEL-28 cells after 48 hrs by sulforhodamine B protein assay; assay type: functional; conditions: SK-MEL-28, 48 h
KM12 = test: Growth inhibition of human KM12 cells after 48 hrs by sulforhodamine B protein assay; assay type: functional; conditions: KM12, 48 h
PC-3 = test: Growth inhibition of human PC3 cells after 48 hrs by sulforhodamine B protein assay; assay type: functional; conditions: PC-3, 48 h
[1] = target: T1, Type II restriction enzyme BamHI (Bacillus amyloliquefaciens) (UniProt P23940); test: Inhibition of Bacillus amyloliquefaciens BamH1-mediated pBR322 cleavage after 16 hrs by RED100-restriction endonuclease digestion assay
T1 sequence (whole entry): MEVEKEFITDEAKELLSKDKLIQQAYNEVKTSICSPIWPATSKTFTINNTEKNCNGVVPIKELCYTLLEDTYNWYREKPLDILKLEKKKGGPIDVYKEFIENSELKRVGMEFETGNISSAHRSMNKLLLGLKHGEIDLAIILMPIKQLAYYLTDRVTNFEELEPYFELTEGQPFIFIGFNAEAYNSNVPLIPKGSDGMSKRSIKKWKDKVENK

SW-620 = test: Growth inhibition of human SW620 cells after 48 hrs by sulforhodamine B protein assay; assay type: functional; conditions: SW-620, 48 h
OVCAR-4 = test: Growth inhibition of human OVCAR4 cells after 48 hrs by sulforhodamine B protein assay; assay type: functional; conditions: OVCAR-4, 48 h
HT-29 = test: Growth inhibition of human HT-29 cells after 48 hrs by sulforhodamine B protein assay; assay type: functional; conditions: HT-29, 48 h
TK-10 = test: Growth inhibition of human TK10 cells after 48 hrs by sulforhodamine B protein assay; assay type: functional; conditions: TK-10, 48 h
SR = test: Growth inhibition of human SR cells after 48 hrs by sulforhodamine B protein assay; assay type: functional
ACHN = test: Growth inhibition of human ACHN cells after 48 hrs by sulforhodamine B protein assay; assay type: functional
UACC-62 = test: Growth inhibition of human UACC62 cells after 48 hrs by sulforhodamine B protein assay; assay type: functional; conditions: UACC-62, 48 h
CCRF-CEM = test: Growth inhibition of human CCRF-CEM cells after 48 hrs by sulforhodamine B protein assay; assay type: functional
HOP-62 = test: Growth inhibition of human HOP62 cells after 48 hrs by sulforhodamine B protein assay; assay type: functional; conditions: HOP-62, 48 h
MDA-MB-231 = test: Growth inhibition of human MDA-MB-231 cells after 48 hrs by sulforhodamine B protein assay; assay type: functional; conditions: MDA-MB-231, 48 h
A549 = test: Growth inhibition of human A549 cells after 48 hrs by sulforhodamine B protein assay; assay type: functional; conditions: A549, 48 h
HOP-92 = test: Growth inhibition of human HOP92 cells after 48 hrs by sulforhodamine B protein assay; assay type: functional; conditions: HOP-92, 48 h
[2] = Growth inhibition of human […] cells after 48 hrs by sulforhodamine B protein assay; assay type: functional
SK-OV-3 = test: Growth inhibition of human SKOV3 cells after 48 hrs by sulforhodamine B protein assay; assay type: functional; conditions: SK-OV-3, 48 h
EKVX = test: Growth inhibition of human EKVX cells after 48 hrs by sulforhodamine B protein assay; assay type: functional
NCI-H522 = test: Growth inhibition of human NCI-H522 cells after 48 hrs by sulforhodamine B protein assay; assay type: functional; conditions: NCI-H522, 48 h
Malme-3M = test: Growth inhibition of human MALME-3M cells after 48 hrs by sulforhodamine B protein assay; assay type: functional
HCT-116 = test: Growth inhibition of human HCT116 cells after 48 hrs by sulforhodamine B protein assay; assay type: functional; conditions: HCT-116, 48 h
NCI-H322M = test: Growth inhibition of human NCI-H322M cells after 48 hrs by sulforhodamine B protein assay; assay type: functional
RXF 393 = test: Growth inhibition of human […] cells after 48 hrs by sulforhodamine B protein assay; assay type: functional; conditions: RXF 393, 48 h
SNB-19 = test: Growth inhibition of human SNB19 cells after 48 hrs by sulforhodamine B protein assay; assay type: functional; conditions: SNB-19, 48 h
DNA = test: Binding affinity to calf thymus DNA assessed as change in melting temperature at a compound to DNA molar ratio of 1:5 at pH 7 by thermal denaturation assay; assay type: nucleic-acid assay; conditions: Bos taurus
NCI/ADR-RES = test: Growth inhibition of human NCI/ADR-RES cells after 48 hrs by sulforhodamine B protein assay; assay type: functional
T47D = test: Growth inhibition of human T47D cells after 48 hrs by sulforhodamine B protein assay; assay type: functional
DU-145 = test: Growth inhibition of human DU145 cells after 48 hrs by sulforhodamine B protein assay; assay type: functional; conditions: DU-145, 48 h
NCI-H460 = test: Growth inhibition of human NCI-H460 cells after 48 hrs by sulforhodamine B protein assay; assay type: functional; conditions: NCI-H460, 48 h
NCI-H226 = test: Growth inhibition of human NCI-H226 cells after 48 hrs by sulforhodamine B protein assay; assay type: functional; conditions: NCI-H226, 48 h
HCT-15 = test: Growth inhibition of human HCT15 cells after 48 hrs by sulforhodamine B protein assay; assay type: functional; conditions: HCT-15, 48 h
MOLT-4 = test: Growth inhibition of human MOLT4 cells after 48 hrs by sulforhodamine B protein assay; assay type: functional; conditions: MOLT-4, 48 h
SN12C = test: Growth inhibition of human SN12C cells after 48 hrs by sulforhodamine B protein assay; assay type: functional
SNB-75 = test: Growth inhibition of human SNB75 cells after 48 hrs by sulforhodamine B protein assay; assay type: functional; conditions: SNB-75, 48 h
NCI-H23 = test: Growth inhibition of human NCI-H23 cells after 48 hrs by sulforhodamine B protein assay; assay type: functional; conditions: NCI-H23, 48 h
K562 = test: Growth inhibition of human K562 cells after 48 hrs by sulforhodamine B protein assay; assay type: functional; conditions: K562, 48 h
COLO 205 = test: Growth inhibition of human COLO205 cells after 48 hrs by sulforhodamine B protein assay; assay type: functional; conditions: COLO 205, 48 h

Which GI50 (M14) does the source give for COc1cc2c(cc1OCCCN1CCN(CCCOc3cc4c(cc3OC)C(=O)N3CC(F)C[C@H]3C=N4)CC1)N=C[C@@H]1CC(F)CN1C2=O (stereo not given in full) here?
The GI50 was < 30 nM.

And the GI50 (CAKI-1)?
Its GI50 is 20 nM.

What about the GI50 (SF-268) of the same compound?
Its GI50 is < 10 nM.

And the GI50 (786-0)?
The GI50 was < 30 nM.

What about the GI50 (HL-60(TB)) of the same compound?
The GI50 was < 10 nM.

And the GI50 (OVCAR-8)?
The GI50 was 100 nM.

What about the GI50 (MCF7) of the same compound?
The GI50 was < 10 nM.

And the GI50 (SK-MEL-28)?
Its GI50 is < 30 nM.

And the GI50 (KM12)?
The GI50 was 100 nM.

What about the GI50 (PC-3) of the same compound?
Its GI50 is 10 nM.

And the Activity [1]?
Its Activity is “Dose-dependent effect”.

What about the GI50 (SW-620) of the same compound?
Its GI50 is < 50 nM.

What about the GI50 (OVCAR-4) of the same compound?
The GI50 was 460 nM.

And the GI50 (HT-29)?
Its GI50 is 170 nM.

And the GI50 (TK-10)?
Its GI50 is 250 nM.

And the GI50 (SR)?
The GI50 was < 10 nM.

And the GI50 (ACHN)?
Its GI50 is 150 nM.

And the GI50 (UACC-62)?
The GI50 was < 80 nM.

And the GI50 (CCRF-CEM)?
The GI50 was < 10 nM.

What about the GI50 (HOP-62) of the same compound?
The GI50 was < 10 nM.

And the GI50 (MDA-MB-231)?
The GI50 was 130 nM.

What about the GI50 (A549) of the same compound?
Its GI50 is 120 nM.

What about the GI50 (HOP-92) of the same compound?
Its GI50 is < 90 nM.

What about the GI50 [2] of the same compound?
The GI50 was < 20 nM.

And the GI50 (SK-OV-3)?
Its GI50 is < 70 nM.

What about the GI50 (EKVX) of the same compound?
The GI50 was 170 nM.

What about the GI50 (NCI-H522) of the same compound?
The GI50 was < 10 nM.

What about the GI50 (Malme-3M) of the same compound?
Its GI50 is < 20 nM.

And the GI50 (HCT-116)?
The GI50 was < 20 nM.

And the GI50 (NCI-H322M)?
The GI50 was 260 nM.

What about the GI50 (RXF 393) of the same compound?
Its GI50 is 110 nM.

And the GI50 (SNB-19)?
Its GI50 is < 20 nM.

And the ΔTm (DNA)?
Its ΔTm is 37 °C.

And the GI50 (NCI/ADR-RES)?
The GI50 was 5250 nM.

And the GI50 (T47D)?
The GI50 was < 10 nM.

What about the GI50 (DU-145) of the same compound?
The GI50 was 40 nM.

What about the GI50 (NCI-H460) of the same compound?
Its GI50 is < 10 nM.

And the GI50 (NCI-H226)?
The GI50 was 100 nM.

And the GI50 (HCT-15)?
Its GI50 is 2560 nM.

And the GI50 (MOLT-4)?
The GI50 was < 10 nM.

What about the GI50 (SN12C) of the same compound?
The GI50 was < 10 nM.

What about the GI50 (SNB-75) of the same compound?
The GI50 was < 30 nM.

What about the GI50 (NCI-H23) of the same compound?
The GI50 was < 30 nM.

And the GI50 (K562)?
Its GI50 is < 10 nM.

What about the GI50 (COLO 205) of the same compound?
The GI50 was < 40 nM.
